Measurements reported in patent US7045147B1, “Controlled release peroral compositions of levosimendan” (Orion Corporation, priority 1998, dated 2006).

How the values were obtained:
[1] = Steady-state clinical study: plasma levels of levosimendan and metabolite (II) after 7 days levosimendan administration; type: in vivo; details: human, po, 1 mg levosimendan orally three times a day for 7 days, healthy volunteers, formulation as Formulation 3 except 1 mg levosimendan and Avicel PH-200 51.0 mg, N 14, read-out: Mean plasma level of levosimendan (day 7)
Method: The steady-state plasma level for metabolite (II) can be measured for any composition by administering the composition of levosimendan to a volunteer or group of volunteers once or several times a day for several days until a steady state level of (II) is reached. The plasma levels of the active metabolite (II) can then be measured according to the procedure described in detail in Example 2.
The active metabolite (II) is added in 20 μl of phosphate buffer, pH 7.2 to 0.5 ml of analyte-free plasma. The amounts of analyte added are 0.100, 0.250, 0.500, 1.00, 2.50, 3.75, 5.00, 7.50 and 12.5 ng. After being vortexed for 20 seconds and left standing for 10 minutes, the 2500 pg of internal standard (R)-N-[4-(1,4,5,6-tetrahydro-4-ethyl-6-oxo-3-pyridazinyl)phenyl]acetamide is added in 20 μl of phosphate buffer, pH 7.2. The mixture is vortexed for 1 minute and left standing for 15 minutes. The calibration samples are alkalised with 50 μl of 0.1 M sodium hydroxide and vortexed for 20 seconds. […]
Determinations are carried out by using the selected reaction monitoring technique. […] The selected reaction monitoring chromatograms are recorded using a PE Sciex API 300 Data System.
Peak area ratios of analyte and its internal standard are plotted against concentrations. […] The limit of quantitation is 0.200 ng/ml. […]

[2] = cited from earlier work
[3] = Pharmacokinetics of levosimendan and its active metabolite (elimination half-life, absorption); type: in vivo, human; details: active first-pass metabolite of levosimendan
From the text: The hemodynamic effects of levosimendan in man are described in Sundberg, S. et al., Am. J. Cardiol., 1995; 75: 1061-1066. Pharmacokinetics of levosimendan in man after i.v. and oral dosing is described in Sandell, E. -P. et al., J. Cardiovasc. Pharmacol., 26(Suppl. I), S57-S62, 1995. The use of levosimendan in the treatment of myocardial ischemia is described in WO 93/21921. Clinical studies have confirmed the beneficial effects of levosimendan in heart failure patients.
Firstly, the elimination half-life of levosimendan in human is short, about 1 h. Therefore, using conventional immediate release oral formulations levosimendan should be administered frequently during the day. Secondly, the gastrointestinal absorption of levosimendan is rapid. Therefore, using immediate release oral formulations high peak plasma concentrations of levosimendan are reached rapidly and abruptly, typically within 1 hour. High plasma concentrations of levosimendan tend to increase heart rate which is an undesired effect in heart failure patients.
The discovery of the active metabolite and its formation route makes it now possible to design controlled release preparations which show a reduced occurrence of undesired effects and which are well suited for the treatment of heart failure patients.

Row | SMILES | concentration at 1 h ([1]; 1 h after the last dose (day 7)) | concentration at 4 h ([1]; 4 h after the last dose (day 7)) | time to reach peak plasma concentrations ([2]; immediate release oral formulations) | elimination half-life ([2]; in human) | elimination half-life compared with levosimendan [3]
1 | CC1CC(=O)NN=C1c1ccc(NN=C(C#N)C#N)cc1 (single isomer, unassigned; (-)) [Levosimendan, (−)-[[4-(1,4,5,6-tetrahydro-4-methyl-6-oxo-3-pyridazinyl)phenyl]hydrazono]propanedinitrile] | 15.4 ng/mL | 8.9 ng/mL | ≤ 1 h | about 1 h | 
2 | CC(=O)Nc1ccc(C2=NNC(=O)C[C@H]2C)cc1 [Metabolite (II), (R)-N-[4-(1,4,5,6-tetrahydro-4-methyl-6-oxo-3-pyridazinyl)phenyl]acetamide] |  |  |  |  | substantially longer than that of levosimendan
